Laboratory results reported in ChEMBL document CHEMBL4811234, “Dihydro-β-agarofuran-Type Sesquiterpenoids from the Seeds of Celastrus virens and Their Multidrug Resistance Reversal Activity against the KB/VCR Cell Line” (J Nat Prod, 2021).

Key:
[1] = Cytotoxicity against human KB/VCR cells assessed as inhibition of cell proliferation at 20 uM measured after 72 hrs by CCK8 assay relative to control; format: cell-based
[2] = Cytotoxicity against human KB/VCR cells assessed as inhibition of cell proliferation at 2 uM measured after 72 hrs by CCK8 assay relative to control; format: cell-based

SMILES | inhibition at 72 h, 20 µM [1] [%] | inhibition at 72 h, 2 µM [2] [%]
CC(=O)O[C@@H]1[C@@H]2[C@@H](OC(C)=O)[C@]3(OC2(C)C)[C@H](C)CC[C@H](OC(C)=O)[C@@]3(C)[C@@H]1OC(=O)c1ccccc1 | 2.4 | 1.6
CC(=O)O[C@@H]1[C@@H]2[C@@H](OC(C)=O)[C@]3(OC2(C)C)[C@H](C)C[C@H](OC(=O)/C=C/c2ccccc2)[C@H](OC(C)=O)[C@@]3(C)[C@@H]1OC(=O)c1ccccc1 | -12.8 | 0.7
CC(=O)O[C@H]1[C@@H]2[C@@H](OC(C)=O)[C@]3(OC2(C)C)[C@H](C)C[C@@H](OC(C)=O)[C@H](OC(C)=O)[C@@]3(C)[C@H]1OC(=O)c1ccccc1 | -2 | -1.2
CC(=O)O[C@@H]1[C@@H]2[C@@H](OC(C)=O)[C@]3(OC2(C)C)[C@H](C)C[C@@H](OC(C)=O)[C@H](OC(C)=O)[C@@]3(C)[C@@H]1OC(=O)c1ccccc1 | -1.5 | 2.7
COc1cc2c(cc1OC)CN(CCc1ccc(-n3nnc(-c4cc(OC)c(OC)cc4NC(=O)c4cc(=O)c5ccccc5o4)n3)cc1)CC2 | – | 23.1
CC(=O)O[C@H]1CC[C@@H](C)[C@]23OC(C)(C)[C@H](C[C@H](OC(=O)c4ccccc4)[C@]12C)[C@H]3OC(C)=O | 0.7 | -1.1
CC(=O)OC[C@]12[C@H](OC(C)=O)C(=O)[C@@H]3[C@@H](OC(C)=O)[C@]1(OC3(C)C)[C@H](C)[C@@H](O)[C@H](OC(C)=O)[C@@H]2OC(C)=O | 9.2 | -5.3
CC(=O)OC[C@]12[C@H](OC(C)=O)C(=O)[C@@H]3[C@@H](OC(C)=O)[C@]1(OC3(C)C)[C@H](C)C[C@H](O)[C@@H]2OC(C)=O | 2.6 | -2
CC(=O)O[C@H]1[C@@H]2[C@@H](OC(=O)/C=C/c3ccccc3)[C@]3(OC2(C)C)[C@H](C)C[C@H](O)[C@H](OC(C)=O)[C@@]3(C)[C@H]1OC(=O)c1ccccc1 | 76.9 | -20.3
CC(=O)OC[C@]12[C@H](OC(C)=O)C(=O)[C@@H]3[C@@H](O)[C@]1(OC3(C)C)[C@H](C)[C@@H](O)[C@H](OC(C)=O)[C@@H]2OC(C)=O | 1.5 | -0.5
CC(=O)O[C@H]1C[C@@H](C)[C@]23OC(C)(C)[C@H](C[C@H](OC(=O)c4ccccc4)[C@@]2(C)[C@@H]1OC(C)=O)[C@H]3OC(=O)c1ccccc1 | 57.9 | 0
CC(=O)O[C@@H]1C[C@@H](C)[C@]23OC(C)(C)[C@H]([C@@H](O)[C@H](OC(=O)c4ccccc4)[C@@]2(C)[C@H]1OC(C)=O)[C@H]3OC(=O)/C=C/c1ccccc1 | 78.7 | 3.3
CC(=O)O[C@H]1[C@@H]2[C@@H](OC(=O)c3cccnc3)[C@]3(OC2(C)C)[C@H](C)C[C@H](OC(C)=O)[C@@H](OC(C)=O)[C@@]3(C)[C@H]1OC(=O)c1ccccc1 | -6.7 | -3
CC(=O)OC[C@]12[C@H](OC(C)=O)C(=O)[C@@H]3[C@@H](O)[C@]1(OC3(C)C)[C@H](C)[C@@H](OC(C)=O)[C@H](OC(C)=O)[C@@H]2OC(C)=O | 2.6 | 1.6
CC(=O)O[C@@H]1[C@H]2[C@H](O)[C@H](OC(=O)c3ccccc3)[C@]3(C)[C@@H](OC(C)=O)[C@H](O)C[C@@H](C)[C@@]13OC2(C)C | -2.1 | -1.9
CC(=O)O[C@@H]1C[C@@H](C)[C@]23OC(C)(C)[C@H](C[C@H](OC(=O)c4ccccc4)[C@]2(C)[C@H]1OC(C)=O)[C@H]3OC(=O)/C=C/c1ccccc1 | 81.8 | -5.3
CCCCCC(=O)O[C@@H]1[C@@H]2[C@@H](OC(C)=O)[C@]3(OC2(C)C)[C@H](C)C[C@@H](OC(C)=O)[C@H](OC(C)=O)[C@@]3(C)[C@H]1OC(=O)c1ccccc1 | -1.9 | -3.1
CC(=O)O[C@H]1[C@@H]2[C@@H](OC(=O)/C=C/c3ccccc3)[C@]3(OC2(C)C)[C@H](C)C[C@@H](OC(C)=O)[C@H](OC(C)=O)[C@@]3(C)[C@H]1OC(=O)c1ccccc1 | -3 | -0.6
CC(=O)O[C@H]1CC[C@@H](C)[C@]23OC(C)(C)[C@H](C[C@H](OC(=O)c4ccccc4)[C@]12C)[C@H]3OC(=O)c1ccccc1 | 77.9 | -1.8
CC(=O)O[C@@H]1[C@@H]2[C@@H](OC(C)=O)[C@]3(OC2(C)C)[C@H](C)CC[C@H](OC(C)=O)[C@@]3(C)[C@H]1OC(=O)c1ccccc1 | 3.2 | 2.4
